Assay results reported in EP0298474B1, “Novel calcitonin derivative and salt thereof” (MITSUBISHI PETROCHEMICAL CO., LTD., priority 1987, dated 1992).
Positions of bridges follow the written chain, without caps; N, C: chain ends. Residues, ends and D or L forms follow the SMILES beside them.

What was measured:
[1] = biological activity assay according to the method of Japanese Provisional Patent Publication No. 123500/1985; assay type: in vivo
Experimental: The crude (Oct¹, Cys(CA)⁷)-CCT obtained was dissolved in a 1 M acetic acid (5 mg/ml) and purified by the reverse phase high performance liquid chromatography. Chemcopack ODS-H (trade name, ø: 10 mm x 250 mm) column produced by Chemco Co. was used, with the eluents employed being water (100) - 10 % TFA (1) for the eluent A and water (40) -acetonitrile (60) - 10 % TFA (1) for the eluent B, and the elution was effected under the linear concentration gradient from the eluent A to the eluent B. Here, the numerals within bracckets represent volume ratios. The fraction corresponding to (Oct¹, Cys(CA)⁷)-CCT was collected and lyophilized to obtain 2.8 mg of white powder. The biological activity of the white powder obtained was assayed according to the method as described in Japanese Provisional Patent Publication No. 123500/1985. […]

[2] = stability test in solution (heat treatment, remaining peak area by reverse phase HPLC); assay type: physicochemical; conditions: 0.1 M sodium citrate buffer (pH 6.0), 10 µg/ml, sealed tube at 80 °C for 24 hours; stated in words relative to Example 1
Experimental: The (Oct¹, Cys(CA)⁷)-CCT was dissolved in 0.1 M sodium citrate buffer (pH 6.0) to a concentration of 10 µg/ml. One ml of this solution was left to stand in a sealed tube at 80 °C for 24 hours. By analysis according to the reverse phase HPLC by use of the measurement conditions (1), the eluted peak area A of the remaining (Oct¹, Cys(CA)⁷)-CCT was determined. Similarly, the eluted peak area B of the (Oct¹, Cys(CA)⁷)-CCT in the sample solution not subjected to the heat treatment was determined, and the ratio of A to B (%) was defined as the index.

[3] = method of Japanese Provisional Patent Publication No. 123500/1985
[4] = stated in words relative to (Oct¹, Cys(CA)⁷)-CCT of Example 1

Row | Compound | biological activity [1, 3] | biological activity [1, 4] | stability (ratio of A to B (%), remaining peak area) [2]
1 | CC(C)C[C@H](NC(=O)[C@H](CCCCN)NC(=O)CNC(=O)[C@H](CC(C)C)NC(=O)[C@@H](NC(=O)[C@@H]1CSSC[C@H](N)C(=O)N[C@@H](C)C(=O)N[C@@H](CO)C(=O)N[C@@H](CC(C)C)C(=O)N[C@@H](CO)C(=O)N[C@@H]([C@@H](C)O)C(=O)N1)C(C)C)C(=O)N[C@@H](CO)C(=O)N[C@@H](CCC(N)=O)C(=O)N[C@@H](CCC(=O)O)C(=O)N[C@@H](CC(C)C)C(=O)N[C@@H](Cc1c[nH]cn1)C(=O)N[C@@H](CCCCN)C(=O)N[C@@H](CC(C)C)C(=O)N[C@@H](CCC(N)=O)C(=O)N[C@H](C(=O)N[C@@H](Cc1ccc(O)cc1)C(=O)N1CCC[C@H]1C(=O)N[C@@H](CCCNC(=N)N)C(=O)N[C@H](C(=O)N[C@@H](CC(=O)O)C(=O)N[C@H](C(=O)NCC(=O)N[C@@H](C)C(=O)NCC(=O)N[C@H](C(=O)N1CCC[C@H]1C(N)=O)[C@@H](C)O)C(C)C)[C@@H](C)O)[C@@H](C)O [natural type CCT, reference compound] (H-CASLSTCVLGKLSQELHKLQTYPRTDVGAGTP-NH2; disulfide 1-7) | 4500 MRC U/mg | – | –
2 | (Oct¹, Ala³, Cys(CA)⁷)-CCT | 6100 MRC U/mg | – | –
3 | (Oct¹, Cys(Acm)⁷)-CCT | 5500 MRC U/mg | – | –
4 | (Oct¹, Cys(Acm)⁷)-ECT | 5400 MRC U/mg | – | –
5 | (Oct¹, Cys(CA)⁷)-CCT | 5400 MRC U/mg | equal to that obtained in Example 1 | –
6 | (Oct¹, Cys⁷)-CCT | – | substantially equal to those of (Oct¹, Cys(CA)⁷)-CCT of Example 1 | substantially equal to those of (Oct¹, Cys(CA)⁷)-CCT of Example 1
7 | (Oct¹, Thr³, Cys(CA)⁷)-CCT | 7800 MRC U/mg | – | –
8 | (pGlu¹, Cys(CA)⁷)-CCT | – | substantially equal to those of (Oct¹, Cys(CA)⁷)-CCT of Example 1 | substantially equal to those of (Oct¹, Cys(CA)⁷)-CCT of Example 1
